The values that follow are results of earlier work, collected in PMC12281572.

SMILES strings stand for the structures. Values joined by “and” are separate entries in the source; they are usually repeats but may differ in a detail not shown here. Identical values can stand only once.

This data set is described as follows: FTIR, 4-fluorophenol as donor (the pK_BHX database, per the paper). Conditions: CCl4; 25 C.

For the compound `CC(=O)c1ccc(C(C)=O)cc1`, the “pK_BHX (log10 Kf of the 1:1 H-bond complex with 4-fluorophenol, by FTIR)” value was 0.92 log units. `CNC(=O)c1ccccc1`: the “pK_BHX (log10 Kf of the 1:1 H-bond complex with 4-fluorophenol, by FTIR)” value is reported as 2.03 log units. Turning to `O=P(c1ccccc1)(c1ccccc1)c1ccccc1`, the “pK_BHX (log10 Kf of the 1:1 H-bond complex with 4-fluorophenol, by FTIR)” value was 3.16 log units. With `CC12CCC(CC1=O)C2(C)C` (stereo not shown), the “pK_BHX (log10 Kf of the 1:1 H-bond complex with 4-fluorophenol, by FTIR)” value is on record as 1.31 log units. With `C1CN2CCN1CC2`, the “pK_BHX (log10 Kf of the 1:1 H-bond complex with 4-fluorophenol, by FTIR)” value is given as 2.33 log units. In the case of `C1=COCC1`, the “pK_BHX (log10 Kf of the 1:1 H-bond complex with 4-fluorophenol, by FTIR)” value is 0.53 log units.

`NCc1cccc([N+](=O)[O-])c1`: the “pK_BHX (log10 Kf of the 1:1 H-bond complex with 4-fluorophenol, by FTIR)” value is on record as 1.26 log units. Take `C1COCO1`: the “pK_BHX (log10 Kf of the 1:1 H-bond complex with 4-fluorophenol, by FTIR)” value was 0.45 log units. On to `CCCCCCCCSC`, for which the “pK_BHX (log10 Kf of the 1:1 H-bond complex with 4-fluorophenol, by FTIR)” value is on record as 0.17 log units. For the compound `CC(C)N(C)C`, the “pK_BHX (log10 Kf of the 1:1 H-bond complex with 4-fluorophenol, by FTIR)” value was 2.11 log units. Regarding `CCOC(=O)c1ccc(C#N)cc1`, the “pK_BHX (log10 Kf of the 1:1 H-bond complex with 4-fluorophenol, by FTIR)” value is 0.66 log units and 0.53 log units. Turning to `N#Cc1ccccc1Br`, the “pK_BHX (log10 Kf of the 1:1 H-bond complex with 4-fluorophenol, by FTIR)” value was 0.71 log units.

Take `CN(C)C=NC1CC1`: the “pK_BHX (log10 Kf of the 1:1 H-bond complex with 4-fluorophenol, by FTIR)” value is reported as 2.36 log units.

In the case of `FC1C2CC3CC(C2)C(F)C1C3` (stereo not shown), the “pK_BHX (log10 Kf of the 1:1 H-bond complex with 4-fluorophenol, by FTIR)” value is reported as 0.48 log units. Regarding `CSC(C)(C)C`, the “pK_BHX (log10 Kf of the 1:1 H-bond complex with 4-fluorophenol, by FTIR)” value is listed as 0.25 log units.

In the case of `CN(C)C(=O)c1ccc(N(C)C)cc1`, the “pK_BHX (log10 Kf of the 1:1 H-bond complex with 4-fluorophenol, by FTIR)” value is recorded as 2.49 log units.

On to `[O-][n+]1cc(Cl)cc(Cl)c1`, for which the “pK_BHX (log10 Kf of the 1:1 H-bond complex with 4-fluorophenol, by FTIR)” value is on record as 1.56 log units. For `COc1cc[n+]([O-])cc1`, the “pK_BHX (log10 Kf of the 1:1 H-bond complex with 4-fluorophenol, by FTIR)” value is recorded as 3.7 log units. In the case of `COc1cccc(C#N)c1`, the “pK_BHX (log10 Kf of the 1:1 H-bond complex with 4-fluorophenol, by FTIR)” value was 0.8 log units.

For the compound `C1CCNC1`, the “pK_BHX (log10 Kf of the 1:1 H-bond complex with 4-fluorophenol, by FTIR)” value is 2.59 log units. For the compound `C(=Nc1ccccc1)Nc1ccccc1`, the “pK_BHX (log10 Kf of the 1:1 H-bond complex with 4-fluorophenol, by FTIR)” value is 2.13 log units. With `CNC(=Nc1ccccc1)c1ccccc1`, the “pK_BHX (log10 Kf of the 1:1 H-bond complex with 4-fluorophenol, by FTIR)” value is listed as 1.83 log units. Take `CCC(=O)N(C)C`: the “pK_BHX (log10 Kf of the 1:1 H-bond complex with 4-fluorophenol, by FTIR)” value was 2.36 log units. On to `N#Cc1ccc(Br)cc1`, for which the “pK_BHX (log10 Kf of the 1:1 H-bond complex with 4-fluorophenol, by FTIR)” value is reported as 0.73 log units. Take `CC(C)N(C(=O)C(C)(C)C)C(C)C`: the “pK_BHX (log10 Kf of the 1:1 H-bond complex with 4-fluorophenol, by FTIR)” value is reported as 2.03 log units. Turning to `CCOC(=O)c1ccc(C)cc1`, the “pK_BHX (log10 Kf of the 1:1 H-bond complex with 4-fluorophenol, by FTIR)” value is 1.05 log units. With `CC(=Nc1ccc(C)cc1)N(C)c1ccccc1`, the “pK_BHX (log10 Kf of the 1:1 H-bond complex with 4-fluorophenol, by FTIR)” value is listed as 1.75 log units. With `O=C(Cl)N(c1ccccc1)c1ccccc1`, the “pK_BHX (log10 Kf of the 1:1 H-bond complex with 4-fluorophenol, by FTIR)” value is 0.75 log units.

Take `CCN(CC)S(=O)(=O)N(CC)CC`: the “pK_BHX (log10 Kf of the 1:1 H-bond complex with 4-fluorophenol, by FTIR)” value was 1.17 log units. With `Clc1ccc(N=CNc2ccc(Cl)cc2)cc1`, the “pK_BHX (log10 Kf of the 1:1 H-bond complex with 4-fluorophenol, by FTIR)” value is 1.63 log units. As for `FC(F)(F)c1cccc(C2CCCN2)c1` (stereo not shown), the “pK_BHX (log10 Kf of the 1:1 H-bond complex with 4-fluorophenol, by FTIR)” value is recorded as 1.38 log units. With `CC(C)N(C#N)C(C)C`, the “pK_BHX (log10 Kf of the 1:1 H-bond complex with 4-fluorophenol, by FTIR)” value was 1.74 log units.

Turning to `CCSC(=O)OC`, the “pK_BHX (log10 Kf of the 1:1 H-bond complex with 4-fluorophenol, by FTIR)” value is listed as 0.73 log units. Consider `CC(=O)N(C1CCCCC1)C1CCCCC1`, for which the “pK_BHX (log10 Kf of the 1:1 H-bond complex with 4-fluorophenol, by FTIR)” value is 2.41 log units.

Turning to `CCC(=O)N(C1CCCCC1)C1CCCCC1`, the “pK_BHX (log10 Kf of the 1:1 H-bond complex with 4-fluorophenol, by FTIR)” value was 2.22 log units. `CN1CCc2ccccc2C1`: the “pK_BHX (log10 Kf of the 1:1 H-bond complex with 4-fluorophenol, by FTIR)” value is on record as 1.8 log units. Regarding `CN(C)C(=O)c1ccccc1`, the “pK_BHX (log10 Kf of the 1:1 H-bond complex with 4-fluorophenol, by FTIR)” value is 2.23 log units. As to `CN(C)C=Nc1ccc(N(C)C)cc1`, the “pK_BHX (log10 Kf of the 1:1 H-bond complex with 4-fluorophenol, by FTIR)” value is listed as 2.32 log units. Consider `CN(C)C=NCC(F)(F)F`, for which the “pK_BHX (log10 Kf of the 1:1 H-bond complex with 4-fluorophenol, by FTIR)” value is given as 1.6 log units.

As for `C=CCN(CC=C)CC=C`, the “pK_BHX (log10 Kf of the 1:1 H-bond complex with 4-fluorophenol, by FTIR)” value is reported as 1.34 log units.

For the compound `CC(C)O`, the “pK_BHX (log10 Kf of the 1:1 H-bond complex with 4-fluorophenol, by FTIR)” value was 1.06 log units.

`CCN(C=C[N+](=O)[O-])CC`: the “pK_BHX (log10 Kf of the 1:1 H-bond complex with 4-fluorophenol, by FTIR)” value is reported as 1.58 log units. On to `CCCCCF`, for which the “pK_BHX (log10 Kf of the 1:1 H-bond complex with 4-fluorophenol, by FTIR)” value was -0.06 log units. For `N#Cc1ccccc1C(F)(F)F`, the “pK_BHX (log10 Kf of the 1:1 H-bond complex with 4-fluorophenol, by FTIR)” value was 0.57 log units. Consider `CCCCNCCCC`, for which the “pK_BHX (log10 Kf of the 1:1 H-bond complex with 4-fluorophenol, by FTIR)” value is 2.11 log units.

Regarding `CN(C)Cc1cccc(C(F)(F)F)c1`, the “pK_BHX (log10 Kf of the 1:1 H-bond complex with 4-fluorophenol, by FTIR)” value is 1.16 log units. On to `CC(C)(C)I`, for which the “pK_BHX (log10 Kf of the 1:1 H-bond complex with 4-fluorophenol, by FTIR)” value is recorded as -0.33 log units. Regarding `CCc1ccncc1`, the “pK_BHX (log10 Kf of the 1:1 H-bond complex with 4-fluorophenol, by FTIR)” value is listed as 2.07 log units. Regarding `CCSSCC`, the “pK_BHX (log10 Kf of the 1:1 H-bond complex with 4-fluorophenol, by FTIR)” value is reported as -0.4 log units.
